In publication PMC10857328, “Utilization of Biopolymer-Based Lutein Emulsion as an Effective Delivery System to Improve Lutein Bioavailability in Neonatal Rats” (Nutrients, 2024):
Marks after values point to notes of the source that are not given here.

Legend:
[1] = Daily dosing study 1 (maternal purified diet with no lutein): serum and tissue lutein concentrations; format: in vivo, neonatal Sprague-Dawley rats; conditions: for Lutein concentration, serum: 2 mg/kg daily oral P5-P18, sampled P19
Protocol: Serum and tissue lutein concentration was determined using an ultra-performance liquid chromatography (UPLC) system (Waters, Milford, MA, USA) equipped with a photo-diode array detector (PDA)/MS/MS, according to our well-established methods with slight modification. As for the serum, 100 μL of the sample was incubated with 2 mL of 100% ethanol at room temperature for an hour for lipid extraction. For the tissues, ~0.1 g of the sample was weighed, homogenized, and incubated with 2 mL of 100% ethanol at room temperature for an hour. An amount of 1 mL of 5% (w/v) potassium hydroxide was added to the sample and incubated in a water bath at 60 °C for 45 min for saponification. Upon saponification, samples were allowed to cool for about 15 min, and then an addition of 4 mL of hexane containing 0.1% butylated hydroxytoluene (w/v) and 2 mL of deionized water was added. The mixture was vortexed for 20 s and centrifuged at 1600 rpm at 25 °C for 15 min. The upper layer was collected following centrifugation and dried under nitrogen at 37 °C. The dried sample was then rinsed twice with hexane, dried, and reconstituted with 100 µL of acetonitrile-methanol. The reconstituted sample was centrifuged for 2 min to remove any possible precipitation. For UPLC analysis, 10 µL of the sample was injected into the Waters Acquity UPLC HSS T3 column. Solvent A was acetonitrile: methanol (50:50, v/v), and solvent B was 100% isopropanol. The mobile phase was made up of solvent A and solvent B in a volume ratio of 95:5 (v/v). The flow rate was set as 0.5 mL/min, and the column temperature was maintained at 35 °C. The detection wavelength was set at 446 nm. Retinyl acetate (Sigma-Aldrich, St. Louis, MO, USA) was used as the internal standard. To determine the effects of daily consumption of CTA-stabilized lutein emulsion on tissue lutein status, two daily dosing studies were conducted. The procedures were approved by the Institutional Animal Care and Use Committee of the University of Alabama (Number: 21-02-4373, 4 February 2021). For daily dosing study 1 (Figure 1B), on P5, rat pups (n = 8–9/group) were randomly selected from the litters and received an oral dose of either free lutein (i.e., lutein ester dissolved in olive oil) or lutein emulsion both containing 2 mg/kg body weight of lutein. […] Dosing was repeated daily until P18. The dosage was determined from previous research in both rodent and human newborns and was also established as an Acceptable Daily Intake for lutein by the Joint Food and Agricultural Organization/World Health Organization. On P19, pups were euthanized. Rats are known to wean between P19 and P21 [47]. Blood from vena cava, liver, spleen, brain, eye, kidney, lung, white adipose tissue (WAT), and brown adipose tissue (BAT) were collected. Blood samples were centrifuged to obtain serum. Serum and collected tissues were frozen at −80 °C until analysis. Serum and tissue lutein concentrations were analyzed using the methods described in Section 2.3.2.

[2] = Daily dosing study 2 (maternal standard chow diet containing lutein): serum and tissue lutein concentrations; format: in vivo, neonatal Sprague-Dawley rats; conditions: 2 mg/kg daily oral P5-P18
Protocol: Serum and tissue lutein concentration was determined using an ultra-performance liquid chromatography (UPLC) system (Waters, Milford, MA, USA) equipped with a photo-diode array detector (PDA)/MS/MS, according to our well-established methods with slight modification. As for the serum, 100 μL of the sample was incubated with 2 mL of 100% ethanol at room temperature for an hour for lipid extraction. For the tissues, ~0.1 g of the sample was weighed, homogenized, and incubated with 2 mL of 100% ethanol at room temperature for an hour. An amount of 1 mL of 5% (w/v) potassium hydroxide was added to the sample and incubated in a water bath at 60 °C for 45 min for saponification. Upon saponification, samples were allowed to cool for about 15 min, and then an addition of 4 mL of hexane containing 0.1% butylated hydroxytoluene (w/v) and 2 mL of deionized water was added. The mixture was vortexed for 20 s and centrifuged at 1600 rpm at 25 °C for 15 min. The upper layer was collected following centrifugation and dried under nitrogen at 37 °C. The dried sample was then rinsed twice with hexane, dried, and reconstituted with 100 µL of acetonitrile-methanol. The reconstituted sample was centrifuged for 2 min to remove any possible precipitation. For UPLC analysis, 10 µL of the sample was injected into the Waters Acquity UPLC HSS T3 column. Solvent A was acetonitrile: methanol (50:50, v/v), and solvent B was 100% isopropanol. The mobile phase was made up of solvent A and solvent B in a volume ratio of 95:5 (v/v). The flow rate was set as 0.5 mL/min, and the column temperature was maintained at 35 °C. The detection wavelength was set at 446 nm. Retinyl acetate (Sigma-Aldrich, St. Louis, MO, USA) was used as the internal standard. To mimic the human dietary intake of lutein, daily dosing study 2 was conducted (Figure 1C). In this study, maternal rats consumed a standard rodent chow diet containing lutein from ingredients (i.e., ground corn) during pregnancy and lactation (Figure S2). The study design was similar to that of daily dosing study 1, except that a negative control group, in which rat pups were given olive oil from P5 to P18, was included in this study. Serum and tissue lutein concentrations were analyzed using the methods described in Section 2.3.2.

[3] = 2 mg/kg daily oral P5-P18, maternal purified diet with no lutein
[4] = 2 mg/kg daily oral P5-P18, maternal purified diet with no lutein, listed as free lutein
[5] = daily dosing study 1 vs study 2
[6] = maternal standard chow diet containing lutein
[7] = maternal standard chow diet containing lutein, listed as free lutein

Which “Lutein concentration, serum” value ([1]; maternal purified diet with no lutein) does the source give for Lutein ester [Free Lutein] here?
Its value is 112.42 ± 34.60 ^a nmol/L.

What about the “Lutein concentration, serum” value ([1]; maternal purified diet with no lutein, listed as free lutein) of the same substance?
The value was 112.42 ± 34.60 nmol/L.

And the “Lutein concentration, BAT” value [1, 3]?
The value was 0.02 ± 0.002 ^a nmol/g.

And the “Lutein concentration, WAT” value [1, 3]?
The value was 0.08 ± 0.04 ^a nmol/g.

What about the “Lutein concentration, brain” value [1, 3] of the same substance?
The value was 0.04 ± 0.01 ^b nmol/g.

What about the “Lutein concentration, eye” value [1, 3] of the same substance?
The value was 0.04 ± 0.01 ^a nmol/g.

And the “Lutein concentration, kidney” value [1, 3]?
The value was 0.12± 0.04 ^b nmol/g.

What about the “Lutein concentration, liver” value [1, 3] of the same substance?
Its value is 2.52 ± 1.29 ^b nmol/g.

And the “Lutein concentration, lung” value [1, 3]?
The value was 0.06 ± 0.01 ^a nmol/g.

What about the “Lutein concentration, spleen” value [1, 3] of the same substance?
The value was 0.66 ± 0.18 ^a nmol/g.

What about the “Lutein concentration, BAT” value [1, 4] of the same substance?
The value was 0.02 ± 0.002 nmol/g.

What about the “Lutein concentration, brain” value [1, 4] of the same substance?
Its value is 0.04 ± 0.01 nmol/g.

What about the “Lutein concentration, eye” value [1, 4] of the same substance?
The value was 0.02 ± 0.007 nmol/g.

And the “Lutein concentration, kidney” value [1, 4]?
Its value is 0.12 ± 0.04 nmol/g.

And the “Lutein concentration, liver” value [1, 4]?
Its value is 2.52 ± 1.29 nmol/g.

And the “Lutein concentration, lung” value [1, 4]?
The value was 0.06 ± 0.01 nmol/g.

And the “Lutein concentration, spleen” value [1, 4]?
The value was 0.66 ± 0.18 nmol/g.

And the “Fold higher eye lutein concentration, no-lutein maternal diet vs diet containing lutein” value [1, 5]?
Its value is 2.00 fold.

What about the “Fold higher liver lutein concentration, no-lutein maternal diet vs diet containing lutein” value [1, 5] of the same substance?
The value was 2.04 fold.

What about the “Fold higher serum lutein concentration, no-lutein maternal diet vs diet containing lutein” value [1, 5] of the same substance?
The value was 6.38 fold.

And the “Lutein concentration, BAT” value [2, 6]?
Its value is 0.026 ± 0.014 ^a nmol/g.

What about the “Lutein concentration, WAT” value [2, 6] of the same substance?
Its value is 0.34 ± 0.23 ^a nmol/g.

And the “Lutein concentration, brain” value [2, 6]?
Its value is 0.06 ± 0.04 ^ab nmol/g.

What about the “Lutein concentration, eye” value [2, 6] of the same substance?
Its value is 0.01 ± 0.003 ^c nmol/g.

And the “Lutein concentration, kidney” value [2, 6]?
The value was 0.12 ± 0.03 ^b nmol/g.

And the “Lutein concentration, liver” value [2, 6]?
The value was 1.23 ± 0.38 ^bc nmol/g.

And the “Lutein concentration, lung” value [2, 6]?
The value was 0.043 ± 0.007 ^a nmol/g.

And the Lutein concentration, serum [2, 6]?
Its Lutein concentration, serum is 17.6 ± 4.39 nM.

What about the “Lutein concentration, spleen” value [2, 6] of the same substance?
The value was 0.58 ± 0.29 ^b nmol/g.

And the “Lutein concentration, serum” value ([2]; maternal standard chow diet containing lutein (Table 4))?
Its value is 17.61 ± 4.39 ^b nmol/L.

What about the “Lutein concentration, BAT” value [2, 7] of the same substance?
The value was 0.026 ± 0.014 nmol/g.

What about the “Lutein concentration, WAT” value [2, 7] of the same substance?
Its value is 0.34 ± 0.23 nmol/g.

And the “Lutein concentration, brain” value [2, 7]?
The value was 0.06 ± 0.04 nmol/g.

And the “Lutein concentration, eye” value [2, 7]?
The value was 0.01 ± 0.003 nmol/g.

And the “Lutein concentration, kidney” value [2, 7]?
The value was 0.12 ± 0.03 nmol/g.

And the “Lutein concentration, liver” value [2, 7]?
Its value is 1.23 ± 0.38 nmol/g.

And the “Lutein concentration, lung” value [2, 7]?
Its value is 0.043 ± 0.007 nmol/g.
